This passage reports TGI results from PubChem BioAssay (NCI).

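Briefly, cells in 96-well plates were exposed to five compound concentrations for 48 h, and endpoints were estimated by linear interpolation. TGI: concentration producing complete growth inhibition.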

Holding throughout (assay): DTP human tumour cell line panel, 48 h
The test system of experiment [1] is COLO 205 colon.
Experiment [2] relates to HCT-15 colon.
Experiment [3] has as its system HOP-62 NSCLC.
For experiment [4], the system named is HOP-92 NSCLC.
The test system of experiment [5] is KM12 colon.
For experiment [6], the system named is M14 melanoma.
Experiment [7] relates to MDA-MB-435.
Experiment [8] relates to NCI/ADR-RES ovarian.
Experiment [9] deals with SF-268 CNS.
For experiment [10], the system named is SK-MEL-5 melanoma.
The subject of experiment [11] is SNB-75 CNS.
Experiment [12] concerns UACC-257 melanoma.
Experiment [13] concerns UACC-62 melanoma.
Experiment [14] deals with UO-31 renal.
The subject of experiment [15] is MALME-3M melanoma.

For `Cn1c(=O)c2c(nc3n2CC(=O)N3CCCCl)n(C)c1=O`, the concentration for total growth inhibition (TGI) in experiment [1], in experiment [2], in [3], in experiment [4], in [5] and in experiment [6] was above 100 µM in each case. For the same compound, the TGI in experiment [7], in experiment [8], in experiment [9], in [10], in experiment [11] and in experiment [12] was above 100 µM in each case. Moreover, the total growth inhibition concentration (TGI) in experiment [13] and in experiment [14] was above 100 µM each time.

Take `CC(C)(C)OC(=O)N/N=C(/N)Cc1ccc(Cl)cc1`: the concentration for total growth inhibition (TGI) in experiment [1], in experiment [2], in experiment [3], in experiment [5], in experiment [6] and in [15] was above 100 µM each time. Moreover, the TGI in [7], in experiment [8], in [9], in experiment [10], in experiment [11] and in [12] was above 100 µM throughout. Also, the concentration for total growth inhibition (TGI) in experiment [13] and in [14] was above 100 µM each time.

Take `CC1CC(C)C(C#N)N(C)c2ccccc21` (configuration not stated): the TGI in experiment [1], in experiment [2], in experiment [3], in experiment [5], in experiment [6] and in [15] was above 100 µM each time. In addition, the total growth inhibition concentration (TGI) in experiment [7], in experiment [8], in experiment [9], in [10], in experiment [11] and in experiment [12] was above 100 µM throughout. The TGI in [13] and in [14] was above 100 µM in each case.

In the case of `COc1cc(/C=C/c2nc(NC(=S)Nc3ccccc3)nnc2C)cc(OC)c1OC`, the TGI was 32.2 µM in experiment [1]; 37.1 µM in experiment [2]; above 100 µM in experiment [3]; above 100 µM in [4]; 27.6 µM in experiment [5]; above 100 µM in experiment [6]. Besides, the total growth inhibition concentration (TGI) in [15] is above 100 µM; in experiment [7], above 100 µM; in experiment [8], above 100 µM; in experiment [9], above 100 µM; in [10] it was 29.1 µM; in experiment [12] it was above 100 µM. Besides, the TGI in experiment [13] came out at 51.1 µM; in [14], 67.7 µM.

Take `N#Cc1sc2c(c1OC(=O)c1ccccc1)c(=O)n(-c1ccccc1)c(=S)n2-c1ccccc1`: the TGI in [1] is 34.2 µM; in experiment [2], 39.4 µM; in [3], 46.5 µM; in [5], 43.5 µM; in [6] it was 40.6 µM; in [15], 50 µM. Moreover, the concentration for total growth inhibition (TGI) is 67.9 µM in experiment [7]; 49.3 µM in experiment [8]; above 100 µM in [9]; 28.5 µM in [10]; above 100 µM in experiment [12]; 40.9 µM in experiment [13]. Moreover, the TGI in [14] was determined as 35.6 µM.

As for `CS(=O)(=O)OCC1CN(S(C)(=O)=O)c2cc(O)ccc21` (configuration not stated), the concentration for total growth inhibition (TGI) in [1] was 5.95 µM; in experiment [2], 12.2 µM; in experiment [3], 7.01 µM; in experiment [4], 7.08 µM; in experiment [5], 13 µM; in [15], 4.35 µM. For the same compound, the TGI came out at 4.07 µM in experiment [7]; 19.9 µM in experiment [8]; 13.5 µM in experiment [9]; 3.52 µM in experiment [10]; 7.43 µM in [11]; 7.72 µM in experiment [12]. This compound came in with a TGI in [14] of 11.1 µM.

As for `CCCCn1c(N)c(-c2nc3ccccc3o2)sc1=S`, the concentration for total growth inhibition (TGI) in experiment [1] is above 100 µM; in experiment [2], 47.5 µM; in experiment [3], 39.9 µM; in [4], above 100 µM; in experiment [5] it was above 100 µM; in [6], above 100 µM. Besides, the TGI was 40.2 µM in [15]; 38.5 µM in experiment [7]; 46.8 µM in [8]; 74.4 µM in experiment [9]; 34.9 µM in experiment [10]; above 100 µM in experiment [12]. In addition, the TGI amounted to 31.9 µM in experiment [13] and 39 µM in experiment [14].

Turning to `Cc1cc(S(=O)(=O)Nc2nc3ccccc3nc2-c2cccc([N+](=O)[O-])c2)c(S)cc1Cl`, the concentration for total growth inhibition (TGI) is 31.5 µM in experiment [1]; above 100 µM in [2]; 39.2 µM in [3]; 46.5 µM in [4]; 31.3 µM in experiment [5]; 35.1 µM in experiment [6]. Moreover, the TGI was found to be 37.3 µM in experiment [15]; 41 µM in [7]; 48.3 µM in experiment [8]; 56.2 µM in [9]; 28.4 µM in experiment [10]; 36 µM in experiment [12]. The figures for the concentration for total growth inhibition (TGI) in experiment [13] and in experiment [14] were 31.8 µM and 46.1 µM, respectively.

With `O=C(NC1CCCCC1NC(c1ccccc1)(c1ccccc1)c1ccccc1)C(=O)NC1CCCCC1NC(c1ccccc1)(c1ccccc1)c1ccccc1` (configuration not stated), the total growth inhibition concentration (TGI) is above 100 µM in [1]; above 100 µM in experiment [2]; above 100 µM in [3]; 60.5 µM in [4]; above 100 µM in experiment [5]; above 100 µM in experiment [15]. In addition, the concentration for total growth inhibition (TGI) is above 100 µM in [7]; above 100 µM in [8]; above 100 µM in experiment [9]; above 100 µM in experiment [10]; 8.65 µM in experiment [11]; above 100 µM in [12]. Also, the concentration for total growth inhibition (TGI) in experiment [14] was above 100 µM.

In the case of `C=CCC1(OCc2ccccc2)C(=O)C(=O)OC1C1COC(C)(C)O1` (configuration not stated), the TGI in experiment [1], in [2], in [3], in experiment [5], in [6] and in experiment [15] was above 100 µM in each case. Moreover, the TGI in experiment [7], in [8], in experiment [9], in experiment [10], in [11] and in experiment [12] was above 100 µM each time. The concentration for total growth inhibition (TGI) in [13] and in experiment [14] was above 100 µM each time.

Usually TGI stands for the concentration giving total growth inhibition. Higher therefore signals less potent growth arrest.
